Test [1] has as its target MAPK14 (UniProt Q16539). The experiment in a line: TNF Inhibition (In Vivo).
Test [2] deals with MAPK14 (UniProt Q16539). The experiment in a line: MAPK14 Kinase Inhibition.
In test [3] the target is MAPK14 (UniProt Q16539). Nature of the test: MAPK14 Kinase Binding Inhibition.

The values that follow come from the Kinase Knowledgebase extract (Sharma et al. 2016).

MAPK14, sequence (Q16539 whole entry, looked up): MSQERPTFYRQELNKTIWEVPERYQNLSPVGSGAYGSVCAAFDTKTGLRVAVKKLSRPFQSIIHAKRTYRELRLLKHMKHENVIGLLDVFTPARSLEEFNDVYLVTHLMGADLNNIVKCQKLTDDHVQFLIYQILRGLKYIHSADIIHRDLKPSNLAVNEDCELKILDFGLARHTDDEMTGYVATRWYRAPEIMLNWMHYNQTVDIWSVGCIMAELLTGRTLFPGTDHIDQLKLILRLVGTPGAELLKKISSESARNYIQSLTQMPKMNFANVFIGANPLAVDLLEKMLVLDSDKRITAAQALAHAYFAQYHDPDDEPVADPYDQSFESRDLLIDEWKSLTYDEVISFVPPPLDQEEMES

On to `Fc1ccc(Nc2nccc(-c3c(-c4ccc(F)cc4)ncn3C3CCNCC3)n2)cc1`, for which the inhibition with MAPK14 [1] was less than 50 µM. Besides, at MAPK14 [2], the IC50 was less than 50 µM.

For `Fc1ccc(-c2ncn(C3CCNCC3)c2-c2ccnc(Nc3ccccc3)c2)cc1`, the inhibition with MAPK14 [1] and at MAPK14 [3] was less than 50 µM throughout.

With `Fc1ccc(-c2ncn(C3CCNCC3)c2-c2ccnc(Nc3cccc(F)c3)n2)cc1`, in the test with MAPK14 [1], the inhibition was less than 50 µM. This molecule also returned an IC50 on MAPK14 [2] of less than 50 µM.

In turn, `Fc1ccc(-c2ncn(C3CCNCC3)c2-c2ccnc(Nc3ccccc3F)n2)cc1` showed an inhibition with MAPK14 [1] of less than 50 µM. The IC50 against MAPK14 [2] was less than 50 µM.

For the molecule `CCOC(=O)N1CCC(n2cnc(-c3ccc(F)cc3)c2-c2ccnc(Nc3cccc(OCc4ccccc4)c3)n2)CC1`, the IC50 at MAPK14 [2] is less than 50 µM.

Consider `CN1CCC(n2cnc(-c3ccc(F)cc3)c2-c2ccnc(NCc3ccc4c(c3)OCO4)n2)CC1`, for which the inhibition at MAPK14 [3] was less than 50 µM.

At MAPK14 [3], `CN1CCC(n2cnc(-c3ccc(F)cc3)c2-c2ccnc(NC3CC(C)(C)NC(C)(C)C3)n2)CC1` showed an inhibition of less than 50 µM.

`Fc1ccc(-c2ncn(C3CCNCC3)c2-c2ccnc(Nc3ccccc3)n2)cc1`: the inhibition with MAPK14 [1] and at MAPK14 [3] was less than 50 µM in each case.

`CN1CCC(n2cnc(-c3ccc(F)cc3)c2-c2ccnc(NC3CCN(Cc4ccccc4)CC3)n2)CC1`: the inhibition on MAPK14 [3] was less than 50 µM.

On MAPK14 [3], `CN1CCC(n2cnc(-c3ccc(F)cc3)c2-c2ccnc(NCCCN3CCOCC3)n2)CC1` registered an inhibition of less than 50 µM.

On to `CN1CCC(n2cnc(-c3ccc(F)cc3)c2-c2ccnc(NCc3cccc(Cl)c3)n2)CC1`, for which the inhibition in the test with MAPK14 [1] and on MAPK14 [3] was less than 50 µM in each case.

As for `CN1CCC(n2cnc(-c3ccc(F)cc3)c2-c2ccnc(Nc3ccccc3)n2)CC1`, the inhibition in the test with MAPK14 [1] and at MAPK14 [3] was less than 50 µM in each case.

Turning to `CCOC(=O)N1CCC(Nc2nccc(-c3c(-c4ccc(F)cc4)ncn3C3CCN(C)CC3)n2)CC1`, the inhibition on MAPK14 [3] is less than 50 µM.

For `CN1CCC(n2cnc(-c3ccc(F)cc3)c2-c2ccnc(NC3CCSCC3)n2)CC1`, on MAPK14 [3], the inhibition is less than 50 µM.

In the case of `Oc1ccc(Nc2nccc(-c3c(-c4ccc(F)cc4)ncn3C3CCNCC3)n2)cc1`, the IC50 against MAPK14 [2] is less than 50 µM.

Regarding `CN1CCC(n2cnc(-c3ccc(F)cc3)c2-c2ccnc(NC3CCNCC3)n2)CC1`, the inhibition at MAPK14 [3] was less than 50 µM.

With `CC1(C)CC(n2cnc(-c3ccc(F)cc3)c2-c2ccnc(NCCO)n2)CC(C)(C)N1`, the inhibition with MAPK14 [1] and at MAPK14 [3] was less than 50 µM in each case.

`CN1CCC(n2cnc(-c3ccc(F)cc3)c2-c2ccnc(NCCc3c[nH]c4ccc(Cl)cc34)n2)CC1` had an inhibition at MAPK14 [3] of less than 50 µM.

In turn, `C[S+]([O-])c1ccc(-c2ncn(C3CCNCC3)c2-c2ccnc(Nc3ccccc3)n2)cc1` (stereo not given) came in with an IC50 against MAPK14 [2] of less than 50 µM.

For the molecule `O[C@H]1CC[C@H](n2cnc(-c3ccc(F)cc3)c2-c2ccnc(Nc3ccccc3)n2)CC1`, the inhibition at MAPK14 [3] was less than 50 µM.

The molecule `Oc1cccc(Nc2nccc(-c3c(-c4ccc(F)cc4)ncn3C3CCNCC3)n2)c1` gave an IC50 on MAPK14 [2] of less than 50 µM.

As for `CC1(C)CC(n2cnc(-c3ccc(F)cc3)c2-c2ccnc(Nc3ccccc3)n2)CC(C)(C)N1`, the inhibition at MAPK14 [3] is less than 50 µM.

On to `CN1CCC(n2cnc(-c3ccc(F)cc3)c2-c2ccnc(Nc3cccc(Br)c3)n2)CC1`, for which the inhibition at MAPK14 [3] is less than 50 µM.

On MAPK14 [2], `COc1cccc(Nc2nccc(-c3c(-c4ccc(F)cc4)ncn3C3CCNCC3)n2)c1` displayed an IC50 of less than 50 µM.

`COc1ccccc1Nc1nccc(-c2c(-c3ccc(F)cc3)ncn2C2CCNCC2)n1` showed an IC50 at MAPK14 [2] of less than 50 µM.

Turning to `CN1CCC(n2cnc(-c3ccc(F)cc3)c2-c2ccnc(NCc3ccccc3)n2)CC1`, the inhibition with MAPK14 [1] and at MAPK14 [3] was less than 50 µM throughout.

`Fc1ccc(-c2ncn(C3CCNCC3)c2-c2ccnc(Nc3ccc(F)c(F)c3)n2)cc1` had an IC50 against MAPK14 [2] of less than 50 µM.

With `CCOCCCNc1nccc(-c2c(-c3ccc(F)cc3)ncn2C2CCNCC2)n1`, the inhibition on MAPK14 [3] is less than 50 µM.

For the molecule `CN1CCC(n2cnc(-c3ccc(F)cc3)c2-c2ccnc(NCCO)n2)CC1`, the inhibition in the test with MAPK14 [1] and on MAPK14 [3] was less than 50 µM throughout.

As to `Fc1ccc(-c2ncn(C3CCNCC3)c2-c2ccnc(NCCCn3ccnc3)n2)cc1`, the inhibition with MAPK14 [1] was less than 50 µM.

In the case of `O=C1CCC(n2cnc(-c3ccc(F)cc3)c2-c2ccnc(Nc3ccccc3)n2)CC1`, the inhibition in the test with MAPK14 [1] and at MAPK14 [3] was less than 50 µM in each case.

`CN1CCC(n2cnc(-c3ccc(F)cc3)c2-c2ccnc(NCc3cccc4ccccc34)n2)CC1`: the inhibition in the test with MAPK14 [1] and at MAPK14 [3] was less than 50 µM each time.

At MAPK14 [3], `NCCNc1nccc(-c2c(-c3ccc(F)cc3)ncn2C2CCNCC2)n1` came in with an inhibition of 50 µM.

In turn, `Fc1ccc(-c2ncn(C3CCNCC3)c2-c2ccnc(Nc3cccc(C(F)(F)F)c3)n2)cc1` gave an IC50 on MAPK14 [2] of less than 50 µM.

With `CCOC(=O)N1CCC(n2cnc(-c3ccc(F)cc3)c2-c2ccnc(Nc3ccc(OCc4ccccc4)cc3)n2)CC1`, the IC50 against MAPK14 [2] was less than 50 µM.

On MAPK14 [3], `Fc1ccc(cc1)c2ncn(C3CCNCC3)c2c4ccnc(NCCCN5=CNC=C5)n4` had an inhibition of less than 50 µM.

In turn, `COc1ccc(Nc2nccc(-c3c(-c4ccc(F)cc4)ncn3C3CCNCC3)n2)cc1` showed an IC50 at MAPK14 [2] of less than 50 µM.

`CSc1ccc(-c2ncn(C3CCNCC3)c2-c2ccnc(Nc3ccccc3)n2)cc1` gave an IC50 against MAPK14 [2] of less than 50 µM.
